# Measurements as given in patent publication US20210317099A1, “SAFER, POTENT, AND FAST ACTING ANTIMICROBIAL AGENTS” (Purdue Research Foundation, priority 2020, published 2021).
# Like-named read-outs stand apart in the source and are kept apart here.
# Key:
# Format in all cases: cell-based
# [1] = test system: Staphylococcus aureus NRS384 (MRSA USA300); experiment: Initial MIC screening, broth microdilution (CLSI); conditions: for MIC: Staphylococcus aureus NRS384 (MRSA USA300), broth microdilution, visual reading
# Experimental: Method: The minimum inhibitory concentration (MIC) of the compounds 1-187, and control antibiotics (vancomycin, linezolid) was determined using the broth microdilution method against methicillin-resistant Staphylococcus aureus (MRSA) USA 300 using the broth microdilution method according to the guidelines outlined by the Clinical and Laboratory Standards Institute (CLSI). MRSA strain was cultivated on Tryptic soy agar plates and let grow for 24 hours at 37° C. under aerobic conditions. Bacterial suspension equivalent to 0.5 McFarland standard was prepared and diluted in cation-adjusted Mueller-Hinton broth (CAMHB) to attain a bacterial concentration of 5×10^5 CFU/ml and seeded in 96-well plates. The desired concentrations of each drug and compound were added in the first row of the 96-well plates and serially diluted to achieve a concentration gradient from 64 μg/ml to 0.5 μg/mL.
# [2] = test system: Enterococcus faecalis ATCC 51299 (VRE); experiment: MIC, Gram-positive panel; conditions: Enterococcus faecalis ATCC 51299 (VRE); read-out: MIC
# Experimental: (§1) Next, the spectrum of antibacterial activity of compounds 144, 148, 149, 151, 155, 158, and 187 was examined against a panel of clinically relevant Gram-positive bacterial pathogens including methicillin-resistant Staphylococcus aureus (MRSA), vancomycin-resistant Staphylococcus aureus (VRSA), vancomycin-resistant Enterococcus faecalis and Enterococcus faecium (VRE), and Streptococcus pneumoniae. Bacterial strains were grown aerobically overnight on tryptone soya agar plates at 37° C. Afterwards, a bacterial solution equivalent to 0.5 McFarland standard was prepared and diluted in cation-adjusted Mueller-Hinton broth (CAMHB) (for staphylococci). Enterococci and Streptococci were diluted in tryptone soya broth (TSB) to achieve a bacterial concentration of about 5×10^5 CFU/mL and seeded in 96-well plates. Compounds and control drugs were added in the first row of 96-well plates and serially diluted with media containing bacteria. Plates were then, incubated aerobically at 37° C. for 18-20 hours (except for S. pneumoniae, which was incubated at 37° C. in presence of 5% CO2 for 18-20 hours).
# [3] = test system: Enterococcus faecium ATCC 700221 (VRE); experiment: MIC, Gram-positive panel; conditions: Enterococcus faecium ATCC 700221 (VRE); read-out: MIC
# Experimental: as §1
# [4] = test system: MRSA NRS 119; experiment: MIC, Gram-positive panel; conditions: Staphylococcus aureus; MRSA NRS 119; read-out: MIC
# Experimental: as §1
# [5] = test system: MRSA NRS 123; experiment: MIC, Gram-positive panel; conditions: Staphylococcus aureus; MRSA NRS 123; read-out: MIC
# Experimental: as §1
# [6] = test system: MRSA NRS 385; experiment: MIC, Gram-positive panel; conditions: Staphylococcus aureus; MRSA NRS 385; read-out: MIC
# Experimental: as §1
# [7] = test system: MRSA NRS 386; experiment: MIC, Gram-positive panel; conditions: Staphylococcus aureus; MRSA NRS 386; read-out: MIC
# Experimental: as §1
# [8] = test system: Methicillin-resistant S. epidermidis NRS101; experiment: MIC, Gram-positive panel; conditions: Staphylococcus epidermidis; Methicillin-resistant S. epidermidis NRS101; read-out: MIC
# Experimental: as §1
# [9] = test system: Methicillin-resistant S. pneumoniae ATCC 700677; experiment: MIC, Gram-positive panel; conditions: Streptococcus pneumoniae, ATCC700677; Methicillin-resistant S. pneumoniae ATCC 700677; read-out: MIC
# Experimental: as §1
# [10] = test system: S. aureus ATCC 6538; experiment: MIC, Gram-positive panel; conditions: Staphylococcus aureus, ATCC6538; S. aureus ATCC 6538; read-out: MIC
# Experimental: as §1
# [11] = test system: S. aureus NRS 107; experiment: MIC, Gram-positive panel; conditions: Staphylococcus aureus, NRS107; S. aureus NRS 107; read-out: MIC
# Experimental: as §1
# [12] = test system: S. pneumoniae ATCC 51916; experiment: MIC, Gram-positive panel; conditions: Streptococcus pneumoniae, ATCC51916; S. pneumoniae ATCC 51916; read-out: MIC
# Experimental: as §1
# [13] = test system: VRSA 10; experiment: MIC, Gram-positive panel; conditions: Staphylococcus aureus; VRSA 10; read-out: MIC
# Experimental: as §1
# [14] = test system: VRSA 12; experiment: MIC, Gram-positive panel; conditions: Staphylococcus aureus; VRSA 12; read-out: MIC
# Experimental: as §1
# [15] = test system: human keratinocytes cell line (HaCaT cells); experiment: In vitro cytotoxicity, MTS assay; conditions: 2 h
# Experimental: Compounds 144, 148, 149, 151, 155, and 158 were assayed (at concentrations of 16, 32, and 64 μg/mL) against a human keratinocytes cell line (HaCaT cells) to determine their in vitro potential toxic effect. Briefly, cells were cultured in Dulbecco's Modified Eagle Medium (DMEM) supplemented with 10% fetal bovine serum (FBS) and penicillin-streptomycin at 37° C. in presence of 5% CO2. Compounds were added in the first row of the 96-well plate. Control cells received DMSO alone at a concentration equivalent to that in drug-treated wells. The cells were incubated with the compounds (in triplicate) in a 96-well plate at 37° C. in presence of 5% CO2 for two hours. The assay reagent MTS 3-(4,5-dimethylthiazol-2-yl)-5-(3-carboxymethoxyphenyl)-2-(4-sulfophenyl)-2H-tetrazolium) (Promega, Madison, Wis., USA) was subsequently added and the plate was incubated for three to four hours. Absorbance readings (at OD490) were recorded using a kinetic microplate reader (Molecular Devices, Sunnyvale, Calif., USA). The quantity of viable cells after treatment with each compound was expressed as a percentage of the viability to DMSO-treated control cells (average of triplicate wells±standard deviation).
# FIG. 2. Analyzing the toxicity of compounds 144, 148, 149, 151, 155 and 158 (tested in triplicates at 16, 32 and 64 μg/mL) against human keratinocytes cells (HaCaT) using the MTS 3-(4,5-dimethylthiazol-2-yl)-5-(3-carboxymethoxyphenyl)-2-(4-sulfophenyl)-2H-tetrazolium) assay. Results are presented as percent viable cells relative to DMSO (negative control to determine a baseline measurement for the cytotoxic impact of each compound). The absorbance values represent an average of three samples analyzed for each compound. Error bars represent standard deviation values. The data were analyzed via a two-way ANOVA with post-hoc Dunnett's test for multiple comparisons. An asterisk (*) denotes statistical significance (P<0.05) between results for compounds and DMSO.
smiles,measurement,setting,value
C=C(C(=O)OC)C(c1cccc2ccccc12)C(O)c1ccccc1 (centres unmarked) [Compound 144],potency compared with control antibiotic,"[1]; MRSA USA300, Table 1 assay",potency similar to the oxazolidinone class of antimicrobial drug linezolid
same,MIC,[1],1 mg/L
same,MIC,"[1]; Staphylococcus aureus, read-out: MIC",1 to 2 mg/L
same,MIC,[2],> 64 mg/L
same,MIC,[3],64 mg/L
same,MIC,[4],1 mg/L
same,MIC,[5],1 mg/L
same,MIC,[6],1 mg/L
same,MIC,[7],1 mg/L
same,MIC,[8],1 mg/L
same,MIC,[9],1 mg/L
same,MIC,[10],1 mg/L
same,MIC,[11],1 mg/L
same,MIC,[12],1 mg/L
same,MIC,[13],1 mg/L
same,MIC,[14],1 mg/L
same,tolerable concentration as multiple of MIC against MRSA,[15],16 to 32 times
